Entries after “also recorded” stand apart in the source; their conditions may differ. Starred links: 1 amine or outer side, 2 acyl side, 3 side chain; linkers in the order of their positions; H or OH if unused. Positions of bridges follow the written chain, without caps; N, C: chain ends. Non-standard residues stand in square brackets, D forms with d. Residues, ends and D or L forms follow the SMILES beside them. TBMB = c1c(C[*:1])cc(C[*:3])cc1C[*:2]; mXylylene = c1cc(C[*:1])cc(C[*:2])c1; NMeY = CN[C@@H](Cc1ccc(O)cc1)C(=O)O; Dap = NC[C@H](N)C(=O)O; Mpa = O=C(O)CCS; Sar = CNCC(=O)O
How the values were obtained:
ICR mice = assay: Novel object recognition test; format: in vivo; conditions: Ro25-1553 0.07 nmol/g mixed with peptide 1 nmol/g, FIG. 9B
Experimental: We evaluated whether the peptide could improve the recognition function to novel objects, which is reduced by the activation of VIPR2. Ro25-1553 (Peptide Institute, Inc.) an analog of VIP and a selective agonist for VIPR2, was dissolved in PBS (0.07 nmol/g body weight), and then mixed at 99:1 with a representative example of the inventive peptide (Seq-10) dissolved in DMSO (1 nmol/g body weight) or DMSO (Vehicle group) (1% final concentration of DMSO). These solutions were administered subcutaneously once daily to male ICR mice on postnatal day 1 for 14 days, the mice were continuously bred and subjected to a novel object recognition test at 8 weeks of age. The novel object recognition test was conducted during the light period (8:00-20:00) according to Non-Patent Literature 12. First, test cages (30 cm×30 cm×35 cm) made of acrylic-modified polyvinyl chloride were placed in a soundproofed laboratory at an illumination level of 30 lux and covered only with wooden sterilized soft chips (Sankyo Lab Service Co.). […] The animals' behavior during the training and test trials was video-recorded, and the search time for each of the two objects was measured. The discrimination index was calculated as the ratio (%) of the search time difference between object c and object a to the total search time in the test trial.

VIPR2 [1] = target: T1, VIPR2 (Mus musculus, UniProt P41588); assay: VIPR2 antagonist activity in vivo: CREB phosphorylation in prefrontal cortex (Western blotting); conditions: ICR mice 12 days old, male, s.c., Ro25-1553 0.4 nmol/g with peptide 1 or 10 nmol/g, 1 hour, FIG. 8
T1 construct: from tissue; host or cells: prefrontal cortex of ICR mice, 12 days old, male
T1 sequence (P41588 23-437): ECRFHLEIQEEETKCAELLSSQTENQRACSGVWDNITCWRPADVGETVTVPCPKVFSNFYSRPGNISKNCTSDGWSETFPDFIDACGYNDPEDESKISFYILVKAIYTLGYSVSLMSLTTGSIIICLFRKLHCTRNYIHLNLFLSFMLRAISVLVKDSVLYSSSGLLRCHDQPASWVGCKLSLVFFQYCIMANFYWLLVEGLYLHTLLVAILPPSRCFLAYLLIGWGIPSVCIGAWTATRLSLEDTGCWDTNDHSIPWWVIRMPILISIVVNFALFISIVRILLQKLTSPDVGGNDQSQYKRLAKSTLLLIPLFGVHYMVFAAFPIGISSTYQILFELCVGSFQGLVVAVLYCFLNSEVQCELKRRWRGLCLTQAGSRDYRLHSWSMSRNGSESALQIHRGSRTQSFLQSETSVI
Experimental: Ro25-1553 (Peptide Institute, Inc.) which is an analog of VIP and a selective agonist for VIPR2, was dissolved in PBS (0.4 nmol/g body weight), and then mixed at 9:1 with the representative example of the inventive peptide (Seq-10) dissolved in DMSO (1 nmol/g body weight or 10 nmol/g body weight) or DMSO (vehicle group) (at a final concentration of DMSO is 10%). These solutions were administered subcutaneously to ICR mice (12 days old, male). 1 hour later, brains were removed, prefrontal cortex was dissected, and the phosphorylation of intracellular cyclic AMP response sequence-binding protein (CREB) (one of the downstream signals of VIPR2) in the cells was evaluated by Western blotting. The antibodies used for Western blotting were anti-phosphorylated CREB antibody (#9198) and anti-CREB antibody (#9197) purchased from Cell Signaling Technology.

[2] = Resistance to protease degradation in rat plasma (RP-HPLC peak); format: in vitro ADME; conditions: 37° C., 24 hours compared to 0 hours, FIG. 6
Experimental: To confirm that the peptides of the embodiments are resistant to protease degradation compared to VIpep-3, VIpep-3 or representative peptides of the embodiments (Seq-1, Seq-6, Seq-9, or Seq-10) were mixed in rat plasma, and after a certain incubation time, the residual amount of the peptide was evaluated by the presence or absence of peaks on RP-HPLC. To 1 μL of each 10 mM peptide, 20 μL of rat plasma was added, and incubated at 37° C. for an arbitrary time (0 or 24 hours). Then, for VIpep-3, 80% acetonitrile, for the other peptides, 200 μL each of acetonitrile was added, mixed well, placed on ice for 10 minutes, and centrifuged at 15,000 rpm at 4° C. for 10 minutes to remove plasma proteins.

VIPR2 [3] = target: T2, VIPR2 (Homo sapiens, UniProt P41587); assay: Selective antagonist activity: intracellular calcium change (FLIPR Tetra) in VIPR1-, VIPR2- or PAC1-expressing cells; format: cell-based; parameters: host or cells: VIPR2-expressing cells
T2 sequence (P41587 24-438): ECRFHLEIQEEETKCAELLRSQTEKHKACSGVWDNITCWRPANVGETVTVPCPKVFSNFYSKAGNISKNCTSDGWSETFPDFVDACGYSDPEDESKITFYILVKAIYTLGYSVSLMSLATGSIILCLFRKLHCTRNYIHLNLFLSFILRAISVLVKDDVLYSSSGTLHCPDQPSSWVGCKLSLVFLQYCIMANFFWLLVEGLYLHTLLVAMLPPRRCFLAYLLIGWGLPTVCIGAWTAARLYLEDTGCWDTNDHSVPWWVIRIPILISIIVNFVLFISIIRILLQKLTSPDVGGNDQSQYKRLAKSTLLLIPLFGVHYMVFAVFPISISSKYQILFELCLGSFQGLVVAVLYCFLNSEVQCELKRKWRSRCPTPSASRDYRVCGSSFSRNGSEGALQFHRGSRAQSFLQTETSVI
Experimental: A representative example of any concentration of the inventive peptide (Seq-10) was added to cells expressing VIPR1-expressing cells, VIPR2-expressing cells, or PAC1-expressing cells all of which have been transfected with intracellular calcium concentration indicator and incubated for 30 minutes. Then, VIPR1 cells and VIPR 2 cells were treated with VIP (25 nM and 150 nM, respectively), and PAC1 cells were treated with PACAP (35 nM). The change in intracellular calcium concentration for 2 minutes immediately after the addition thereof was measured by FLIPR Tetra. The inhibition rate of the antagonist peptides was calculated, assuming that the change in intracellular calcium concentration when only the ligand for VIP or PACAP was added was defined as 0% inhibition, and the change in intracellular calcium concentration when both the antagonist peptide and the ligand were not added was defined as 100%.

VIPR2 [4] = target: T2, VIPR2; assay: Change in intracellular calcium concentration in VIPR2-expressing cells (Fluo-8), peptide co-added with VIP; format: cell-based; parameters: host or cells: purchased human VIPR2-expressing cell line; conditions: VIP 150 nM, peptide 750 nM co-added, FIG. 5
Experimental: One of the downstream signals of VIPR2 is known to be changes in intracellular calcium concentration. Human VIPR2-expressing cell line (Catalog No. HTS079RTA, manufactured by Eurofins) was treated with Scree Quest™ Fluo-8 No Wash Calcium Assay Kit (Catalog No. 36315, AAT Bioquest) to introduce Fluo-8, an indicator reagent to measure changes in intracellular calcium concentration by fluorescence. The natural ligand VIP (150 nM final concentration) and VIpep-3 (final concentration 750 nM) or representative examples of the peptides of the embodiments (Seq-1, Seq 5-9) (final concentration 750 nM) were co-added and changes in fluorescence intensity were observed over time using fluorescence microscopy. The difference between the fluorescence intensity before the addition of VIP and the strongest fluorescence intensity after the addition of VIP was taken as 100% and compared to the difference in fluorescence intensity when VIpep-3 or the inventive peptide was co-added.

VIPR2 [5] = target: T2, VIPR2; parameters: host or cells: VIPR2-expressing cells; conditions: cellular studies, Non-Patent Literature 8; cited from earlier work
[6] = target: T3, extracellular domain of human VIPR2 (Homo sapiens, UniProt P41587); conditions: recombinant protein, Non-Patent Literature 8; cited from earlier work
T3 sequence (P41587 24-124 limits assumed): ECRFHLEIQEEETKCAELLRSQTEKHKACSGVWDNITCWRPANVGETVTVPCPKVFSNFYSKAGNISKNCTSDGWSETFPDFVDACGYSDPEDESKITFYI

phosphorylation of CREB in prefrontal cortex (VIPR2 [1])	antagonist activity against VIPR2-expressing cells (VIPR2 [3]; summary statement, Seq-10 tested with VIP 150 nM, FLIPR Tetra)	Compound	recognition of novel objects versus Ro25-1553 alone (discrimination index) (ICR mice; s.c. once daily 14 days from postnatal day 1, test at 8 weeks, p less than 0.001 (Student's t-test))	recognition function compared with normal mice (ICR mice; s.c. once daily 14 days, test at 8 weeks)	resistance to protease degradation: peptide-derived RP-HPLC peak after incubation in rat plasma [2]	antagonist activity against VIP-VIPR2 interaction versus VIP-VIPR1 or PACAP-PAC1 interactions (selectivity) (VIPR2 [3]; peptide preincubated 30 minutes, VIP 25 nM (VIPR1), VIP 150 nM (VIPR2), PACAP 35 nM (PAC1), FIG. 7)	inhibition of the receptor-activating activity of VIP on VIPR2 (antagonist activity, intracellular calcium) (VIPR2 [4])	inhibition of VIP and PACAP signaling pathway through VIPR2 (VIPR2 [5])	binding to VIPR2 extracellular region/domain [6]
clearly inhibited	antagonist activity	CC[C@H](C)[C@H](NC(=O)[C@H](CC(C)C)NC(=O)[C@@H]1CC(=O)NCCCC[C@@H]2NC(=O)[C@@H]3CCCN3C(=O)[C@H](CC(C)C)NC(=O)[C@H](Cc3ccc(O)cc3)NC(=O)[C@@H]3CCCN3C(=O)[C@@H]3CCCN3C(=O)[C@@H](NC(C)=O)CSSC[C@H](NC(=O)[C@H](CC(C)C)NC(=O)[C@H](Cc3ccc(O)cc3)NC2=O)C(=O)N1)C(N)=O [Seq-10, Ac-c(Cys-Pro-Pro-Tyr-Leu-Pro-c[Lys-Tyr-Leu-Cys)-Asp]-Leu-Ile-NH2] (Ac-CPPYLPKYLCDLI-NH2; disulfide 1-10; lactam 7-11)	significant improvement	almost the same as that of normal mice	resistance to protease degradation; also recorded: remained almost the same	significantly strong against VIP-VIPR2 interaction than those against VIP-VIPR1 or PACAP-PAC1 interactions			
		CC[C@H](C)[C@H](NC(=O)[C@H](CC(C)C)NC(=O)[C@@H]1CC(=O)NCCCC[C@@H]2NC(=O)[C@@H]3CCCN3C(=O)[C@H](CC(C)C)NC(=O)[C@H](Cc3ccc(O)cc3)N(C)C(=O)CCSCc3cccc(c3)CSC[C@H](NC(=O)[C@H](CC(C)C)NC(=O)[C@H](Cc3ccc(O)cc3)NC2=O)C(=O)N1)C(N)=O [Seq-6, c(Mpa-NmeTyr-Leu-Pro-c[Lys-Tyr-Leu-Cys)-Asp]-Leu-Ile-NH2] ([Mpa][NMeY]LPKYLCDLI-NH2; linker 1-8 via mXylylene; lactam 5-9)			resistance to protease degradation; also recorded: remained almost the same		antagonist activity		
		CC(=O)N[C@H]1CSSC[C@@H](C(=O)N[C@H](C(=O)N[C@@H](CC(C)C)C(=O)N[C@@H](CC(C)C)C(=O)N[C@@H](CC(C)C)C(=O)N[C@@H](CCCNC(=N)N)C(=O)N[C@@H](CO)C(=O)O)[C@@H](C)O)NC(=O)[C@H](CC(C)C)NC(=O)[C@H](CCCNC(=N)N)NC(=O)[C@H](CCCNC(=N)N)NC(=O)[C@@H]2CCCN2C(=O)[C@H](CC(C)C)NC(=O)[C@H](Cc2ccc(O)cc2)NC(=O)[C@@H]2CCCN2C(=O)[C@@H]2CCCN2C1=O [VIpep-3, Ac-c(Cys-Pro-Pro-Tyr-Leu-Pro-Arg-Arg-Leu-Cys)-Thr-Leu-Leu-Leu-Arg-Ser-OH] (Ac-CPPYLPRRLCTLLLRS-OH; disulfide 1-10)			greatly reduced		inhibit the receptor-activating activity of VIP on VIPR2	inhibits	tightly binds
		c(Mpa-NmeTyr-Leu-NmeGly-c(Cys)-Tyr-Leu-Cys)-Dap-Leu-Ile-NH2 ([Mpa][NMeY]L[Sar]CYLC[Dap]LI-NH2; linker (positions not given here) via TBMB; not fully specified (bridges)) [Seq-9, cyclization TBMB(1-5-8)]			resistance to protease degradation; also recorded: remained almost the same		antagonist activity		
		c(Mpa-Pro-Pro-Tyr-Leu-Pro-c[Lys-Tyr-Leu-Cys)-Asp]-Leu-Ile-NH2 ([Mpa]PPYLPKYLCDLI-NH2; disulfide (positions not given here); lactam 7-11; not fully specified (bridges)) [Seq-1, cyclization S-S(1-10)/amide(7-11)]			resistance to protease degradation; also recorded: remained almost the same		antagonist activity; also recorded: inhibit the receptor-activating activity of VIP on VIPR2		

Source: US20230174582A1, “VIPR2 ANTAGONIST PEPTIDE” (ICHIMARU PHARCOS CO., LTD, priority 2020, published 2023)
